Source: patent publication US20150152395A1, “CHIMERIC LUCIFERASES” (Connecticut College, priority 2012, published 2015)

What was measured:
Assay in all cases: Steady-state kinetic constants, bioluminescence activity
[1] = molecular target: Photinus pyralis luciferase, recombinant wild type (PpyWT), SEQ ID NO: 4, with N-terminal peptide GPLGS (Photinus pyralis, UniProt P08659); format: biochemical
[2] = molecular target: T1, Native Ppy, native firefly luciferase from Photinus pyralis (Photinus pyralis, UniProt P08659); format: biochemical
T1 construct: wild type, no tag
T1 sequence (P08659 whole entry): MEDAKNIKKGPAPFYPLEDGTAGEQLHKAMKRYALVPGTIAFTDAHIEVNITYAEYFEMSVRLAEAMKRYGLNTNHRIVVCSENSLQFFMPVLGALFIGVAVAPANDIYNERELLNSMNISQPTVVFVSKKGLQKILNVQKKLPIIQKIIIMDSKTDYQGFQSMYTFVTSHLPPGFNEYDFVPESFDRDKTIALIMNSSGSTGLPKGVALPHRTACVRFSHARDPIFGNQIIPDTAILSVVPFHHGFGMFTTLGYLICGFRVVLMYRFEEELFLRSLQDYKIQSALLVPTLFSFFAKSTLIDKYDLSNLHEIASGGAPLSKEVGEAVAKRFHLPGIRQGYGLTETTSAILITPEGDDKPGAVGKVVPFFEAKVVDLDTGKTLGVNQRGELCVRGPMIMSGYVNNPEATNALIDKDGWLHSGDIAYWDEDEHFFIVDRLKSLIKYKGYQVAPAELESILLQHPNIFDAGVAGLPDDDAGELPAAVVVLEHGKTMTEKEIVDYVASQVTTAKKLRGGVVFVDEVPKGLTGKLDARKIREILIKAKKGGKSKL

[3] = molecular target: T2, 6×His-PpyWT, Photinus pyralis luciferase PpyWT with N-terminal peptide MRGSHHHHHHGS (SEQ ID NO: 27) in place of GPLGS (Photinus pyralis, UniProt P08659); format: biochemical
T2 construct: pQE-30, E. coli; Ni-NTA purified
T2 sequence (P08659 whole entry): as above

[4] = system: LitPpy, chimeric luciferase of LitWT residues 1-439 and PpyWT residues 440-550; format: biochemical, Luciola italica / Photinus pyralis
Protocol: (§1) Reactions were initiated by injection of solutions of the substrate being maintained at saturating concentration. Kinetic constants were determined using a nonlinear least squares method of the Enzyme Kinetics Pro software (SynTex), which fits data from the Michalis-Menten equation to a rectangular hyperbola. The corresponding kcat values were obtained by dividing the Vmax values by the amount (μmol) of each luciferase in the assay mixtures.

[5] = system: Ppy GR-TSLit, chimeric luciferase of Ppy GR-TS N-domain and LitWT C-domain; format: biochemical, Photinus pyralis / Luciola italica
Protocol: as §1

[6] = system: PpyLit (chimeric luciferase, SEQ ID NO: 8) variant F465R; format: biochemical, Photinus pyralis / Luciola italica
Protocol: as §1

[7] = system: PpyLit (chimeric luciferase, SEQ ID NO: 8) variant I232A/I351V/E354K; format: biochemical, Photinus pyralis / Luciola italica
Protocol: as §1

[8] = system: PpyLit (chimeric luciferase, SEQ ID NO: 8) variant I351V/E354K; format: biochemical, Photinus pyralis / Luciola italica
Protocol: as §1

[9] = system: PpyLit (chimeric luciferase, SEQ ID NO: 8) variant S284T; format: biochemical, Photinus pyralis / Luciola italica
Protocol: as §1

[10] = molecular target: T3, Photinus pyralis luciferase PpyWT variant Ppy5, Ile457Val/Ala482Gly/His489Lys/Ala503Asn/Lys543Gln, SEQ ID NO: 10 (Photinus pyralis, UniProt P08659, A482G/A503N/H489K/I457V/K543Q); format: biochemical
T3 construct: pGEX-6P-2 GST fusion (tag cleaved), E. coli BL21
T3 sequence (P08659 whole entry I457V/A482G/H489K/A503N/K543Q, the tested form may be a part): as the sequence (P08659 whole entry) above, with I457V, A482G, H489K, A503N, K543Q counted along it

[11] = molecular target: T4, Photinus pyralis luciferase PpyWT variant Ppy14, Ala450Pro/Ile457Val/Leu472Val/Asp475Ser/Asp476Glu/Ala482Gly/Leu487Met/His489Lys/Ala503Asn/Thr507Val/Thr508Asn/A (Photinus pyralis, UniProt P08659, A450P/A482G/A503N/A509H/D475S/D476E/H489K/I457V/K511R/L472V/L487M/T507V/T508N/V517R); format: biochemical
T4 construct: N-terminal GPLGS; pGEX-6P-2 GST fusion (tag cleaved), E. coli BL21
T4 sequence (P08659 whole entry A450P/I457V/L472V/D475S/D476E/A482G/L487M/H489K/A503N/T507V/T508N/A509H/K511R/V517R, the tested form may be a part): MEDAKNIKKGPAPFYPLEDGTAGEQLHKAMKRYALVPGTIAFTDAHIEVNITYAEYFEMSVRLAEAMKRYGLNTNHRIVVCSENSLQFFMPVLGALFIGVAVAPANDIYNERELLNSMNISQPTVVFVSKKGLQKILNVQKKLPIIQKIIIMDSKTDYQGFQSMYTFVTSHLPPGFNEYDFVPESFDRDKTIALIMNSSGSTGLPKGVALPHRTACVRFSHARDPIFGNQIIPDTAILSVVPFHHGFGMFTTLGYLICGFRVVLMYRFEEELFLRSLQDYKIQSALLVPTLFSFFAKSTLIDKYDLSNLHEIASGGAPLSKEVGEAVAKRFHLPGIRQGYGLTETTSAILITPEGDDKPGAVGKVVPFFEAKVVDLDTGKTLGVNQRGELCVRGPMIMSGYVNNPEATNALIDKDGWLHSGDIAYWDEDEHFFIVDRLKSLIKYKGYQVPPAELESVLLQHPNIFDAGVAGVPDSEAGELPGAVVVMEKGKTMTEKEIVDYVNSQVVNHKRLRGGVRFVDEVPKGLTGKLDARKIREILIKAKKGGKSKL

[12] = molecular target: T5, Photinus pyralis luciferase PpyWT variant Ppy19, Ppy14 plus Leu530Ile/Lys534Val/Ile540Lys/Ala542Pro/Lys543Gln (Photinus pyralis, UniProt P08659, A450P/A482G/A503N/A509H/A542P/D475S/D476E/H489K/I457V/I540K/K511R/K534V/K543Q/L472V/L487M/L530I/T507V/T508N/V517R); format: biochemical
T5 construct: N-terminal GPLGS; pGEX-6P-2 GST fusion (tag cleaved), E. coli BL21

[13] = molecular target: T6, Photinus pyralis luciferase variant Ppy GR-TS (Photinus pyralis, UniProt P08659, A215L/E354K/F250S/F295L/G246A/I232A/T214A/V241I); format: biochemical
T6 construct: N-terminal GPLGS; pGEX-6P-2 GST fusion (tag cleaved), E. coli BL21
T6 sequence (P08659 whole entry T214A/A215L/I232A/V241I/G246A/F250S/F295L/E354K, the tested form may be a part): as the sequence (P08659 whole entry) above, with T214A, A215L, I232A, V241I, G246A, F250S, F295L, E354K counted along it

[14] = molecular target: T7, Photinus pyralis luciferase PpyWT variant Ppy S284T (Ser284Thr) (Photinus pyralis, UniProt P08659, S284T); format: biochemical
T7 construct: pGEX-6P-2 GST fusion (tag cleaved), E. coli BL21
T7 sequence (P08659 whole entry S284T, the tested form may be a part): as the sequence (P08659 whole entry) above, with S284T counted along it

[15] = molecular target: T8, Photinus pyralis luciferase variant Ppy RE-TS5/I351V, PpyRE-TS (SEQ ID NO: 24) with Ile457Val/Ala482Gly/His489Lys/Ala503Asn/Lys543Gln/Ile351Val, SEQ ID NO: 14 (Photinus pyralis, UniProt P08659, A215L/A482G/A503N/E354K/F295L/H489K/I232A/I351V/I457V/K543Q/S284T/T214A); format: biochemical
T8 construct: N-terminal GPLGS; pGEX-6P-2 GST fusion (tag cleaved), E. coli BL21
T8 sequence (P08659 whole entry T214A/A215L/I232A/S284T/F295L/I351V/E354K/I457V/A482G/H489K/A503N/K543Q, the tested form may be a part): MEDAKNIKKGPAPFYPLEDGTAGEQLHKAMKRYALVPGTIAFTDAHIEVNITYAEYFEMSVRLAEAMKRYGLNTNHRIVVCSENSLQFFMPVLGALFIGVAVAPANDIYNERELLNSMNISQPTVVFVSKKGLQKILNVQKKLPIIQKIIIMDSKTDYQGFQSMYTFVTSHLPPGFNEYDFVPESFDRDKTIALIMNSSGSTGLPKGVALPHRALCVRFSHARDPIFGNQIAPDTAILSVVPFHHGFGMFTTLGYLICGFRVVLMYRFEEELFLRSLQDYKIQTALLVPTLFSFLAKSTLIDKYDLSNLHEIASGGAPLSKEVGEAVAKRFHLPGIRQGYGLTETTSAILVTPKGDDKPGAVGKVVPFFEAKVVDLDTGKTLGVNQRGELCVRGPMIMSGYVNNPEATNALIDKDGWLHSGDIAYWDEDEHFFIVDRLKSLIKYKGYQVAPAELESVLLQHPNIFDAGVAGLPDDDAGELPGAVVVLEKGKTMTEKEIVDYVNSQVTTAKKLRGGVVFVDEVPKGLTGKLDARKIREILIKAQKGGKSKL

[16] = molecular target: T9, Photinus pyralis luciferase variant Ppy RE13, Ppy RE9 (SEQ ID NO: 20) with Ile457Val/Arg465Phe/Ala482Gly/His489Lys/Ala503Asn/Lys543Gln, SEQ ID NO: 16 (Photinus pyralis, UniProt P08659, A215L/A482G/A503N/E354I/F295L/H489K/I232A/I351V/I457V/K543Q/R330G/S284T/T214A); format: biochemical
T9 construct: N-terminal GPLGS; pGEX-6P-2 GST fusion (tag cleaved), E. coli BL21
T9 sequence (P08659 whole entry T214A/A215L/I232A/S284T/F295L/R330G/I351V/E354I/I457V/A482G/H489K/A503N/K543Q, the tested form may be a part): as the sequence (P08659 whole entry T214A/A215L/I232A/S284T/F295L/I351V/E354K/I457V/A482G/H489K/A503N/K543Q, the tested form may be a part) above, with R330G, K354I counted along it

[17] = molecular target: LitWT, recombinant Luciola italica luciferase containing Lys547Gly/Met548Gly, SEQ ID NO: 6, with N-terminal peptide GPLGS (Luciola italica, UniProt Q1AG35, K547G/M548G); details: kcat divided by Mg-ATP Km
LitWT, recombinant Luciola italica luciferase containing Lys547Gly/Met548Gly, SEQ ID NO: 6, with N-terminal peptide GPLGS, sequence (Q1AG35 1-548 K547G/M548G): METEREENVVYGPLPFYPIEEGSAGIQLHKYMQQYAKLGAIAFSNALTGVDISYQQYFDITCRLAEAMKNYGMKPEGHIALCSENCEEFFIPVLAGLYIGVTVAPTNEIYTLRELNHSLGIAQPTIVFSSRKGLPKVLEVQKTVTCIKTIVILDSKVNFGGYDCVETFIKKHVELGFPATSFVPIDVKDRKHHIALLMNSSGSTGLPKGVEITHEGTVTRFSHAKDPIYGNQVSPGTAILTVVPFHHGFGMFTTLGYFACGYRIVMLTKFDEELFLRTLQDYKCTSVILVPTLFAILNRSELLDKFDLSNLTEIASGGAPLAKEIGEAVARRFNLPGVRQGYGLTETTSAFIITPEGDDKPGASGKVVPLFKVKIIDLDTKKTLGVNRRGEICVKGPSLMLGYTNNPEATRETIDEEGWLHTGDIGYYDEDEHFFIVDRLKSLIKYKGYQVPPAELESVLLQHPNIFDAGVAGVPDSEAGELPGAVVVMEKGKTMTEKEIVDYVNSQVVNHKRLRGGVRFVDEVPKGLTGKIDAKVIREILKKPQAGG

[18] = pH 7.8, LH2 saturating, read-out: Km Mg-ATP
[19] = read-out: Km Mg-ATP, pH 7.8, LH2 saturating

Photinus pyralis luciferase, recombinant wild type (PpyWT), SEQ ID NO: 4, with N-terminal peptide GPLGS, sequence (P08659 whole entry): as the sequence (P08659 whole entry) above

Nc1ncnc2c1ncn2[C@@H]1O[C@H](COP(=O)(O)OP(=O)(O)OP(=O)(O)O)[C@@H](O)[C@H]1O [Mg-ATP]
kcat/Km ([1]; kcat divided by Mg-ATP Km): 2090 ± 100 M⁻¹ s⁻¹
Km [1, 18]: 86 ± 7 µM
kcat/Km ([2]; kcat divided by Mg-ATP Km): 1890 ± 130 M⁻¹ s⁻¹
Km [2, 18]: 90 ± 10 µM
kcat/Km ([3]; kcat divided by Mg-ATP Km): 1930 ± 110 M⁻¹ s⁻¹
Km [3, 18]: 93 ± 9 µM
kcat/Km ([4]; kcat divided by Mg-ATP Km): 1180 ± 60 M⁻¹ s⁻¹
Km [4, 18]: 188 ± 10 µM
kcat/Km ([5]; kcat divided by Mg-ATP Km): 170 ± 70 M⁻¹ s⁻¹
Km [5, 18]: 466 ± 36 µM
kcat/Km ([6]; kcat divided by Mg-ATP Km): 3430 ± 100 M⁻¹ s⁻¹
Km [6, 18]: 99 ± 6 µM
kcat/Km ([7]; kcat divided by Mg-ATP Km): 1860 ± 120 M⁻¹ s⁻¹
Km [7, 18]: 129 ± 14 µM
kcat/Km ([8]; kcat divided by Mg-ATP Km): 3750 ± 150 M⁻¹ s⁻¹
Km [8, 18]: 80 ± 10 µM
kcat/Km ([9]; kcat divided by Mg-ATP Km): 1120 ± 150 M⁻¹ s⁻¹
Km [9, 18]: 89 ± 10 µM
kcat/Km ([10]; kcat divided by Mg-ATP Km): 4310 ± 120 M⁻¹ s⁻¹
Km [10, 19]: 72 ± 7 µM
kcat/Km ([11]; kcat divided by Mg-ATP Km): 6340 ± 110 M⁻¹ s⁻¹
Km [11, 19]: 41 ± 3 µM
kcat/Km ([12]; kcat divided by Mg-ATP Km): 5990 ± 110 M⁻¹ s⁻¹
Km [12, 19]: 50 ± 5 µM
kcat/Km ([13]; kcat divided by Mg-ATP Km): 500 ± 100 M⁻¹ s⁻¹
Km [13, 19]: 163 ± 16 µM
kcat/Km ([14]; kcat divided by Mg-ATP Km): 630 ± 140 M⁻¹ s⁻¹
Km [14, 19]: 79 ± 9 µM
kcat/Km ([15]; kcat divided by Mg-ATP Km): 1290 ± 140 M⁻¹ s⁻¹
Km [15, 19]: 93 ± 19 µM
kcat/Km ([16]; kcat divided by Mg-ATP Km): 380 ± 100 M⁻¹ s⁻¹
Km [16, 19]: 289 ± 20 µM
kcat/Km [17]: 780 ± 110 M⁻¹ s⁻¹
